# Assay results reported in patent US11285135B2 (AMGEN INC., priority 2016, dated 2022).
# pIC50: −log10 of the molar value. Where two headings read alike, the source gives them in different places.
# Columns and labels:
# [1] = target: GDP-bound protein (aa 1-169), containing both G12C and C118A amino acid substitutions (Homo sapiens, UniProt P01116, C118A/G12C); assay: Coupled Nucleotide Exchange Assay (SOS-mediated nucleotide exchange, AlphaScreen); format: biochemical; conditions: 2 hours compound pre-incubation
# Outline: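 His-tagged GDP-bound […] (aa 1-169, G12C/C118A) pre-incubated 2 h with compound titration in 25 mM HEPES pH 7.4, 10 mM MgCl2, 0.01% Triton X-100.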
# [2] = test system: Phosphorylation of ERK½ in MIA PaCa-2 cells; assay: Phospho-ERK½ MSD Assay in MIA PaCa-2 cells; format: cell-based; conditions: 4 hours compound treatment, 10 ng/mL EGF for 10 min, read-out: p-ERK IC50 (MIA PaCa-2)
# Outline: (§1)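 MIA PaCa-2 or A549 cells (25,000/well, RPMI with 10% FBS) exposed to compound titration for 4 h at 37 °C, then stimulated with 10 ng/mL EGF for 10 min and lysed in RIPA. Phospho-ERK1/2 quantified by MSD whole-cell lysate immunoassay; IC50 from 4-parameter logistic fit.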
# [3] = test system: Phosphorylation of ERK½ in A549 cells; assay: Phospho-ERK½ MSD Assay in A549 cells; format: cell-based; conditions: 4 hours compound treatment, 10 ng/mL EGF for 10 min, read-out: p-ERK IC50 (A549)
# Outline: as §1
# [4] = Homo sapiens, MIA PaCa-2, MIA PaCa-2 cells
# Sequence of GDP-bound protein (aa 1-169), containing both G12C and C118A amino acid substitutions (P01116 1-169 isoform P01116-2 G12C/C118A): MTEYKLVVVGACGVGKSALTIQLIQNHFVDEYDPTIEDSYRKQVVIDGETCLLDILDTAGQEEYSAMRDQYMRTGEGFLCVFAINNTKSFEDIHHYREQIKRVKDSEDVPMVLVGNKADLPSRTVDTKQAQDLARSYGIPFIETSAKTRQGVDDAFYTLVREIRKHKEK
Structure (SMILES),Coupled exchange IC50 [1] [µM],"pIC50 [2, 4]","pIC50 ([3]; Homo sapiens, A549, A549 cells)",pIC50 ([2]; MIA PaCa-2 cells),"pIC50 ([3]; A549 cells, listed as 8-6-7)",pIC50 ([3]; A549 cells)
"C=CC(=O)N1CCN(c2nc(=O)n(-c3cccc(C#N)c3)c3cc(-c4c(O)cccc4F)c(Cl)cc23)CC1 [Example 9-5, 3-(6-chloro-7-(2-fluoro-6-hydroxyphenyl)-2-oxo-4-(4-(2-propenoyl)-1-piperazinyl)-1(2H)-quinazolinyl)benzonitrile]",1.33,5.41,< 4.00,–,–,–
"C=CC(=O)N1CCN(c2snc3c(F)c(-c4c(C5CC5)ccc5[nH]ncc45)c(Cl)cc23)CC1 [Example 23, 1-(4-(5-chloro-6-(5-cyclopropyl-1H-indazol-4-yl)-7-fluoro-2,1-benzothiazol-3-yl)-1-piperazinyl)-2-propen-1-one]",3.29,5.49,< 4.48,–,–,–
"C=CC(=O)N1CCN(c2nc(=O)n(-c3ccccc3C(C)C)c3cc(-c4c(O)cccc4F)c(Cl)cc23)[C@@H](C)C1 (single isomer, unassigned) [Example 8-3-1]",0.282,–,< 4.00,6.39,–,–
"C=CC(=O)N1CCN(c2nnc(-c3cnccc3C)c3cc(-c4c(O)cccc4F)c(Cl)cc23)CC1 [Example 10-6, 1-(4-(7-chloro-6-(2-fluoro-6-hydroxyphenyl)-4-(4-methyl-3-pyridinyl)-1-phthalazinyl)-1-piperazinyl)-2-propen-1-one]",1.20,5.22,< 4.00,–,–,–
C=CC(=O)N1CCN(c2snc3c(F)c(-c4cc(O)cc5ccccc45)c(Cl)cc23)[C@@H](C(F)F)C1 (racemic) [Example 7-1],0.299,6.37,< 4.00,–,–,–
"C=CC(=O)N1CCN(c2snc3c(F)c(-c4cc(N)c(Cl)cc4Cl)c(Cl)cc23)CC1 [Example 3-20, 1-(4-(6-(5-amino-2,4-dichlorophenyl)-5-chloro-7-fluoro-2,1-benzothiazol-3-yl)-1-piperazinyl)-2-propen-l-one]",2.99,5.02,< 4.00,–,–,–
"C=CC(=O)N1CCN(c2nc(=O)n(-c3ccccc3C(C)C)c3cc(-c4cc(N)ccc4Cl)c(Cl)cc23)[C@@H](C)C1 [Example 9-3, 7-(5-amino-2-chlorophenyl)-6-chloro-4-((2S)-2-methyl-4-(2-propenoyl)-1-piperazinyl)-1-(2-(2-propanyl)phenyl)-2(1H)-quinazolinone]",0.113,7.46,4.18,–,–,–
"C=CC(=O)N1CCN(c2snc3c(F)c(-c4cc(O)cc5ccccc45)c(Cl)cc23)C[C@H]1C [Example 5-7, 1-((2R)-4-(5-chloro-7-fluoro-6-(3-hydroxy-1-naphthalenyl)-2,1-benzothiazol-3-yl)-2-methyl-1-piperazinyl)-2-propen-1-one]",0.815,5.42,< 4.00,–,–,–
"C=CC(=O)N1CCN(c2snc3c(F)c(-c4cc(N)ccc4Cl)c(Cl)cc23)CC1 [Example 3-19, 1-(4-(6-(5-amino-2-chlorophenyl)-5-chloro-7-fluoro-2,1-benzothiazol-3-yl)-1-piperazinyl)-2-propen-1-one]",0.954,5.69,< 4.48,–,–,–
"C=CC(=O)N1CCN(c2snc3c(F)c(-c4cc(N)nc5ccccc45)c(Cl)cc23)CC1 [Example 26, 1-(4-(6-(2-amino-4-quinolinyl)-5-chloro-7-fluoro-2,1-benzothiazol-3-yl)-1-piperazinyl)-2-propen-1-one]",3.90,4.52,< 4.00,–,–,–
"CN(C)C/C=C/C(=O)N1CCN(c2snc3c(F)c(-c4cc(O)cc5ccccc45)c(Cl)cc23)CC1 [Example 17-2, (2E)-1-(4-(5-chloro-7-fluoro-6-(3-hydroxy-1-naphthalenyl)-2,1-benzothiazol-3-yl)-1-piperazinyl)-4-(dimethylamino)-2-buten-1-one]",1.02,5.59,4.31,–,–,–
"C=CC(=O)N1CCN(c2nnc(-c3cc(Cl)ccc3C)c3cc(-c4c(O)cccc4F)c(Cl)cc23)CC1 [Example 10-3, 1-(4-(7-chloro-4-(5-chloro-2-methylphenyl)-6-(2-fluoro-6-hydroxyphenyl)-1-phthalazinyl)-1-piperazinyl)-2-propen-1-one]",1.10,5.03,< 4.00,–,–,–
"C=CC(=O)N1CCN(c2snc3c(F)c(-c4cc(N)cc(F)c4F)c(Cl)cc23)CC1 [Example 3-15, 1-(4-(6-(5-amino-2,3-difluorophenyl)-5-chloro-7-fluoro-2,1-benzothiazol-3-yl)-1-piperazinyl)-2-propen-1-one]",4.03,4.70,< 4.00,–,–,–
"C=CC(=O)N1CCN(c2nnc(-c3ccccc3C(C)C)c3cc(-c4c(O)cccc4F)c(C)nc23)CC1 [Example 27, 1-(4-(3-(2-Fluoro-6-hydroxyphenyl)-2-methyl-5-(2-(2-propanyl)phenyl)pyrido[2,3-d]pyridazin-8-yl)-1-piperazinyl)-2-propen-1-one]",1.78,4.89,< 4.48,–,–,–
"C=CC(=O)N1CCN(c2nc(=O)n(-c3ccccc3C(C)C)c3nc(-c4c(O)cccc4F)c(Cl)cc23)[C@@H](C)C1 [Example 8-6, 6-chloro-7-(2-fluoro-6-hydroxyphenyl)-4-((2S)-2-methyl-4-(2-propenoyl)-1-piperazinyl)-1-(2-(2-propanyl)phenyl)pyrido[2,3-d]pyrimidin-2(1H)-one]",0.100,–,–,7.92,–,4.16
"C=CC(=O)N1C[C@@H]2[C@H]1CCN2c1snc2c(F)c(-c3cc(O)cc4ccccc34)c(Cl)cc12 (racemic) [Example 5-8, 1-(cis-2-(5-Chloro-7-fluoro-6-(3-hydroxy-1-naphthalenyl)-2,1-benzothiazol-3-yl)-2,6-diazabicyclo[3.2.0]heptan-6-yl)-2-propen-1-one]",0.433,5.92,< 4.48,–,–,–

# Further lines, results first:
Coupled exchange IC50 [1] [µM],"pIC50 [2, 4]","pIC50 ([3]; Homo sapiens, A549, A549 cells)",pIC50 ([2]; MIA PaCa-2 cells),"pIC50 ([3]; A549 cells, listed as 8-6-7)",pIC50 ([3]; A549 cells),Structure (SMILES)
0.093,6.83,4.19,–,–,–,"C=CC(=O)N1CCN(c2nc(=O)n(-c3ccccc3C(C)C)c3cc(-c4ccccc4Cl)c(Cl)cc23)[C@@H](C)C1 [Example 9-11, 6-chloro-7-(2-chlorophenyl)-4-((2S)-2-methyl-4-(2-propenoyl)-1-piperazinyl)-1-(2-(2-propanyl)phenyl)-2(1H)-quinazolinone]"
0.101,6.93,4.18,–,–,–,"C=CC(=O)N1CCN(c2nc(=O)n(-c3ccccc3C(C)C)c3cc(-c4cccc(Cl)c4Cl)c(Cl)cc23)[C@@H](C)C1 [Example 9-10, 6-chloro-7-(2,3-dichlorophenyl)-4-((2S)-2-methyl-4-(2-propenoyl)-1-piperazinyl)-1-(2-(2-propanyl)phenyl)-2(1H)-quinazolinone]"
1.62,5.33,5.43,–,–,–,"C=CC(=O)N1CCN(c2snc3c(F)c(-c4cc(O)cc5cnn(C)c45)c(Cl)cc23)CC1 [Example 19-2, 1-(4-(5-chloro-7-fluoro-6-(5-hydroxy-1-methyl-1H-indazol-7-yl)-2,1-benzothiazol-3-yl)-1-piperazinyl)-2-propen-1-one]"
0.185,–,–,6.89,< 4.00,–,"C=CC(=O)N1CCN(c2nc(=O)n(-c3ccccc3C(C)C)c3nc(-c4c(O)cccc4F)c(Cl)cc23)[C@@H](C)C1 (single isomer, unassigned) [Example 8-6-2]"
0.630,4.99,< 4.00,–,–,–,"C=CC(=O)NC1CN(c2snc3c(F)c(-c4cc(O)cc5ccccc45)c(Cl)cc23)C1 [Example 4-6, N-(1-(5-chloro-7-fluoro-6-(3-hydroxy-1-naphthalenyl)-2,1-benzothiazol-3-yl)-3-azetidinyl)-2-propenamide]"
3.00,–,–,< 4.00,–,< 4.00,"C=CC(=O)N1CCN(c2snc3c(F)c(-c4cc(O)cc5ccccc45)c(Cl)cc23)CC1 (single isomer, unassigned) [Example 3-1-1, 1-(4-(5-chloro-7-fluoro-6-(3-hydroxy-1-naphthalenyl)-2,1-benzothiazol-3-yl)-1-piperazinyl)-2-propen-1-one]"
0.537,5.89,5.43,–,–,–,"C=CC(=O)N1CCN(c2snc3c(F)c(-c4nc(N)ccc4Cl)c(Cl)cc23)CC1 [Example 6-1, 1-(4-(6-(6-Amino-3-chloro-2-pyridinyl)-5-chloro-7-fluoro-2,1-benzothiazol-3-yl)-1-piperazinyl)-2-propen-1-one]"
1.34,4.89,< 4.00,–,–,–,C=CC(=O)N1CCN(c2nnc(-c3cccnc3C)c3cc(-c4c(O)cccc4F)c(Cl)cc23)CC1 [Example 10-8]
